# Reference: patent US20030176381A1, “Hyaluronic acid in the treatment of cancer” (priority 2002, published 2003)
# Columns and labels:
# Format in all cases: cell-based
# [1] = tested on: Jurkat T cell leukemia cells; assay: MTT cell proliferation, Jurkat T; settings: HA 80 μg/ml
# Method: (§1) Cell proliferation was measured using dimethylthiazoldiphenyltetrazolium (MTT) reduction (Mosman et al. J. Immunol. Methods 65:55, 1983). Unless otherwise stated, 100 Al of 5 mg of MTT (Sigma-Aldrich, St. Louis, Mo., USA) dissolved in 1 ml of PBS was added into each well. After 4 h, medium was removed from each well, 1.0 ml of acid-isopropanol (0.04 N HCI in isopropanol) was added and reduced MTT was solubilized by mixing. Absorbency of the reaction product was measured at a wavelength of 570 nm using a multiplate spectrophotometer reader (Elx800 Model, Bio-TEK Instruments Inc., Winooski, Vt., USA).
# (§2) Unless stated otherwise 1.0 x 10^5 cells/ml were seeded in 6-well flat-bottom tissue culture plates and were maintained for 48 h at 370 C in a 5% CO2 atmosphere.
# (§3) CD44 expression and the inhibition of proliferation by 5.0-7.5 x 10^5 Da HA were measured using Jurkat T cell leukemia cells; MCF-7 human breast cancer cells; RT-4, T-24, HT-1376 and UMUC-3 human bladder cancer cells; and, PC-3, Du-145 and LNCaP prostate cancer cells (Table 8)
# [2] = tested on: RT-4 human bladder cancer cells; assay: MTT cell proliferation, RT-4
# Method: Cell proliferation was measured using dimethylthiazoldiphenyltetrazolium (MTT) reduction (Mosman et al. J. Immunol. Methods 65:55, 1983). Unless otherwise stated, 100 Al of 5 mg of MTT (Sigma-Aldrich, St. Louis, Mo., USA) dissolved in 1 ml of PBS was added into each well. After 4 h, medium was removed from each well, 1.0 ml of acid-isopropanol (0.04 N HCI in isopropanol) was added and reduced MTT was solubilized by mixing. Absorbency of the reaction product was measured at a wavelength of 570 nm using a multiplate spectrophotometer reader (Elx800 Model, Bio-TEK Instruments Inc., Winooski, Vt., USA). […] PC-3, LNCAP and Du-145 human prostate cancer cells; MCF-7 human breast cancer cells; HT-1080 human fibrosarcoma cancer cells; B16F1 murine melanoma cells; and, UMUC-3, RT-4, HT-1376 and T-24 human bladder cancer cells were incubated with 0.8, 8.0 and 80 μg/ml of 5.0-7.5 x 10^5 Da HA (Table 2). […] MTT was used at 50 μl per well. HT-1376, RT-4 and T-24 human bladder cancer cells were incubated with 0.8 pg/ml of 5.0-7.5 x 10^5 Da HA +1.0 ug/ml of MCC (Table 5). […] MCF-7 human breast cancer cells; RT-4, T-24, HT-1376 and UMUC-3 human bladder cancer cells; and, PC-3, Du-145 and LNCaP prostate cancer cells (Table 8)
# [3] = tested on: HT-1376 human bladder cancer cells; assay: MTT cell proliferation, HT-1376
# Method: as §1, §2
# (§4) PC-3, LNCAP and Du-145 human prostate cancer cells; MCF-7 human breast cancer cells; HT-1080 human fibrosarcoma cancer cells; B16F1 murine melanoma cells; and, UMUC-3, RT-4, HT-1376 and T-24 human bladder cancer cells were incubated with 0.8, 8.0 and 80 μg/ml of 5.0-7.5 x 10^5 Da HA (Table 2).
# Unless stated otherwise 2.0 x 10^4 cells/ml were seeded in 24-well plates and were maintained for 48 h at 370 C in a 5% CO2 atmosphere. MTT was used at 50 μl per well.
# HT-1376, RT-4 and T-24 human bladder cancer cells were incubated with 0.8 pg/ml of 5.0-7.5 x 10^5 Da HA +1.0 ug/ml of MCC (Table 5).
# as §3
# [4] = tested on: B16F1 murine melanoma cells; assay: MTT cell proliferation, B16F1; settings: 48 h
# Method: as §1, §2, §4
# [5] = tested on: HT-1080 human fibrosarcoma cancer cells; assay: MTT cell proliferation, HT-1080; settings: 48 h
# Method: as §1, §2, §4
# [6] = HA at 0.8 μg/ml alone (+ saline), 24-well, Example 6
substance,measurement,setting,value
Hyaluronic acid [5.0-7.5 × 10^5 Da HA],% inhibition of proliferation,[1],0%
same,% INHIBITION of cell proliferation,[2]; HA 0.008 μg/ml alone (+ saline),0%
same,% INHIBITION of cell proliferation,[2]; HA 0.08 μg/ml alone (+ saline),0%
same,% INHIBITION of cell proliferation,"[2]; HA 0.8 μg/ml, 48 h",12%
same,% INHIBITION of cell proliferation,"[2]; HA 8.0 μg/ml, 48 h",13%
same,% INHIBITION of cell proliferation,"[2]; HA 80.0 μg/ml, 48 h",5%
same,% INHIBITION of cell proliferation,[2]; [6],13%
same,% INHIBITION of cell proliferation,"[3]; HA 0.8 μg/ml, 48 h",0%
same,% INHIBITION of cell proliferation,"[3]; HA 8.0 μg/ml, 48 h",3%
same,% INHIBITION of cell proliferation,"[3]; HA 80.0 μg/ml, 48 h",1%
same,% INHIBITION of cell proliferation,[3]; [6],3%
same,% INHIBITION of cell proliferation,[4]; HA 0.8 μg/ml,20%
same,% INHIBITION of cell proliferation,[4]; HA 8.0 μg/ml,20%
same,% INHIBITION of cell proliferation,[4]; HA 80.0 μg/ml,30%
same,% INHIBITION of cell proliferation,[5]; HA 0.8 μg/ml,4%
same,% INHIBITION of cell proliferation,[5]; HA 8.0 μg/ml,4%
same,% INHIBITION of cell proliferation,[5]; HA 80.0 μg/ml,36%
